Each structure is given as a SMILES string. Values joined by “and” are separate entries in the source; they are usually repeats but may differ in a detail not shown here. Equal entries are not always repeated. Inconclusive results are not listed.

The text below walks through data of PubChem BioAssay AID288 (DTP/NCI, 2004).

This assay has as its system BDF1 mice, M5076 sarcoma s.c., survival/tumor T/C. Briefly: NCI In Vivo Anticancer Drug Screen. Data for tumor model Sarcoma M5076 (subcutaneous) in B6D2F1 (BDF1) mice. The protocol:
The antitumor activity of compounds was measured in mice bearing transplantable tumors. Survival or tumor size were measured and the results are expressed as the measurement made in the treated group (T) divided by the measurement made in the vehicle treated control group (C). The tumor model used in this assay is Sarcoma M5076 (subcutaneous) in B6D2F1 (BDF1) mice

[1] abbreviates: endpoint: median survival time, dose: 50.0 mg/kg/injection, schedule: Q01DX009 (ip), vehicle: saline with Tween-80, higher = longer survival.
The mark [2] stands for this setting: endpoint: median survival time, dose: 100.0 mg/kg/injection, schedule: Q01DX009 (ip), vehicle: saline with Tween-80, higher = longer survival.
[3] abbreviates: endpoint: median tumor weight (est.), dose: 50.0 mg/kg/injection, schedule: Q01DX009 (ip), vehicle: saline with Tween-80, higher = larger tumour.
Where [4] appears, read: endpoint: median tumor weight (est.), dose: 100.0 mg/kg/injection, schedule: Q01DX009 (ip), vehicle: saline with Tween-80, higher = larger tumour.
Setting [5] is: endpoint: median survival time, dose: 50.0 mg/kg/injection, schedule: Q04DX003 (ip), vehicle: saline with Tween-80, higher = longer survival.
The mark [6] stands for this setting: endpoint: median survival time, dose: 200.0 mg/kg/injection, schedule: Q01DX009 (ip), vehicle: saline with Tween-80, higher = longer survival.
[7] abbreviates: endpoint: median tumor weight (est.), dose: 200.0 mg/kg/injection, schedule: Q01DX009 (ip), vehicle: saline with Tween-80, higher = larger tumour.

With `NCCc1ccc(O)c(O)c1`, the T/C reads like this: (endpoint: mean tumor weight, dose: 25.0 mg/kg/injection, schedule: Q02DX011 (ip), vehicle: saline, higher = larger tumour) 53 % of control; (endpoint: mean tumor weight, dose: 50.0 mg/kg/injection, schedule: Q02DX011 (ip), vehicle: saline, higher = larger tumour) 57 % of control; (endpoint: mean tumor weight, dose: 100.0 mg/kg/injection, schedule: Q02DX011 (ip), vehicle: saline, higher = larger tumour) 62 % of control; (endpoint: mean tumor weight, dose: 200.0 mg/kg/injection, schedule: Q02DX011 (ip), vehicle: saline, higher = larger tumour) 45 % of control; (endpoint: mean tumor weight, dose: 400.0 mg/kg/injection, schedule: Q02DX011 (ip), vehicle: saline, higher = larger tumour) 76 % of control; (endpoint: mean tumor weight, dose: 800.0 mg/kg/injection, schedule: Q02DX011 (ip), vehicle: saline, higher = larger tumour) 95 % of control. Moreover, the T/C (endpoint: median survival time, dose: 12.5 mg/kg/injection, schedule: Q02DX030 (ip), vehicle: saline, higher = longer survival) was 114 % of control; the T/C (endpoint: median survival time, dose: 25.0 mg/kg/injection, schedule: Q02DX030 (ip), vehicle: saline, higher = longer survival) is 99 % of control; the T/C (endpoint: median survival time, dose: 50.0 mg/kg/injection, schedule: Q02DX030 (ip), vehicle: saline, higher = longer survival) was 91 % of control; the T/C (endpoint: median survival time, dose: 100.0 mg/kg/injection, schedule: Q02DX030 (ip), vehicle: saline, higher = longer survival) is 100 % of control; the T/C (endpoint: median survival time, dose: 200.0 mg/kg/injection, schedule: Q02DX030 (ip), vehicle: saline, higher = longer survival) is 93 % of control; the T/C (endpoint: median survival time, dose: 800.0 mg/kg/injection, schedule: Q02DX030 (ip), vehicle: saline, higher = longer survival) is 91 % of control. In addition, the T/C (endpoint: median tumor weight (est.), dose: 25.0 mg/kg/injection, schedule: Q02DX011 (ip), vehicle: saline, higher = larger tumour) is 58 % of control; the T/C (endpoint: median tumor weight (est.), dose: 50.0 mg/kg/injection, schedule: Q02DX011 (ip), vehicle: saline, higher = larger tumour) is 59 % of control; the T/C (endpoint: median tumor weight (est.), dose: 100.0 mg/kg/injection, schedule: Q02DX011 (ip), vehicle: saline, higher = larger tumour) is 80 % of control; the T/C (endpoint: median tumor weight (est.), dose: 200.0 mg/kg/injection, schedule: Q02DX011 (ip), vehicle: saline, higher = larger tumour) is 62 % of control; the T/C (endpoint: median tumor weight (est.), dose: 400.0 mg/kg/injection, schedule: Q02DX011 (ip), vehicle: saline, higher = larger tumour) was 66 % of control; the T/C (endpoint: median tumor weight (est.), dose: 800.0 mg/kg/injection, schedule: Q02DX011 (ip), vehicle: saline, higher = larger tumour) is 77 % of control. The T/C was 86 % of control (endpoint: median tumor weight change, dose: 12.5 mg/kg/injection, schedule: Q02DX006 (ip), vehicle: saline, higher = larger tumour); 93 % of control (endpoint: median tumor weight change, dose: 25.0 mg/kg/injection, schedule: Q02DX006 (ip), vehicle: saline, higher = larger tumour); 112 % of control (endpoint: median tumor weight change, dose: 50.0 mg/kg/injection, schedule: Q02DX006 (ip), vehicle: saline, higher = larger tumour); 103 % of control (endpoint: median tumor weight change, dose: 100.0 mg/kg/injection, schedule: Q02DX006 (ip), vehicle: saline, higher = larger tumour); 105 % of control (endpoint: median tumor weight change, dose: 200.0 mg/kg/injection, schedule: Q02DX006 (ip), vehicle: saline, higher = larger tumour); 99 % of control (endpoint: median tumor weight change, dose: 400.0 mg/kg/injection, schedule: Q02DX006 (ip), vehicle: saline, higher = larger tumour). Further, the T/C (endpoint: median tumor weight change, dose: 800.0 mg/kg/injection, schedule: Q02DX006 (ip), vehicle: saline, higher = larger tumour) is 101 % of control.

For `COc1cc(/C=C2\SC(=S)N(c3ccc(Cl)c(Cl)c3)C2=O)ccc1O`, the T/C was 90 % of control under setting [1], 94 % of control under setting [2], 105 % of control under setting [3] and 117 % of control under setting [4].

In the case of `COc1cc(C(C)(C)C)cc(OC)c1C(O)(c1c(OC)cc(C(C)(C)C)cc1OC)c1c(OC)cc(C(C)(C)C)cc1OC`, the T/C is 95 % of control under setting [5] and 102 % of control (endpoint: median survival time, dose: 100.0 mg/kg/injection, schedule: Q04DX003 (ip), vehicle: saline with Tween-80, higher = longer survival).

With `O=C1/C(=C/c2ccc3c(c2)OCO3)SC(=S)N1c1ccc(Cl)c(Cl)c1`, the T/C was 102 % of control under setting [1], 90 % of control under setting [2], 154 % of control under setting [3] and 116 % of control under setting [4].

Turning to `O=C1N=C(Oc2ccccc2)SC1=O`, the T/C under setting [5] is 106 % of control.

With `O=CC(NC(=O)N(CCCl)N=O)C(O)C(O)C(O)CO` (centres undefined), the T/C reads like this: (endpoint: mean tumor weight, dose: 0.75 mg/kg/injection, schedule: Q02DX011 (ip), vehicle: saline, higher = larger tumour) 100 % of control; (endpoint: mean tumor weight, dose: 1.5 mg/kg/injection, schedule: Q02DX011 (ip), vehicle: saline, higher = larger tumour) 33 % of control; (endpoint: mean tumor weight, dose: 3.0 mg/kg/injection, schedule: Q02DX011 (ip), vehicle: saline, higher = larger tumour) 6 % of control; (endpoint: median survival time, dose: 4.32 mg/kg/injection, schedule: Q04DX003 (ip), vehicle: saline, higher = longer survival) 182 % of control; (endpoint: median survival time, dose: 6.17 mg/kg/injection, schedule: Q04DX003 (ip), vehicle: saline, higher = longer survival) 152 % of control and 153 % of control; (endpoint: median survival time, dose: 6.86 mg/kg/injection, schedule: Q01DX001 (ip), vehicle: saline, higher = longer survival) 109 % of control. Further, the T/C (endpoint: median survival time, dose: 8.82 mg/kg/injection, schedule: Q04DX003 (ip), vehicle: saline, higher = longer survival) is 179 % of control and 181 % of control; the T/C (endpoint: median survival time, dose: 9.8 mg/kg/injection, schedule: Q01DX001 (ip), vehicle: saline, higher = longer survival) was 111 % of control and 113 % of control; the T/C (endpoint: median survival time, dose: 12.6 mg/kg/injection, schedule: Q04DX003 (ip), vehicle: saline, higher = longer survival) is 186 % of control and 188 % of control; the T/C (endpoint: median survival time, dose: 18.0 mg/kg/injection, schedule: Q04DX003 (ip), vehicle: saline, higher = longer survival) is 205 % of control; the T/C (endpoint: median survival time, dose: 20.0 mg/kg/injection, schedule: Q01DX001 (ip), vehicle: saline, higher = longer survival) was 155 % of control and 156 % of control; the T/C (endpoint: median tumor weight (est.), dose: 0.75 mg/kg/injection, schedule: Q02DX011 (ip), vehicle: saline, higher = larger tumour) was 118 % of control. Also, the T/C is, setting by setting: (endpoint: median tumor weight (est.), dose: 1.5 mg/kg/injection, schedule: Q02DX011 (ip), vehicle: saline, higher = larger tumour) 5 % of control; (endpoint: median tumor weight (est.), dose: 3.0 mg/kg/injection, schedule: Q02DX011 (ip), vehicle: saline, higher = larger tumour) 4 % of control.

In the case of `CCc1ccc(NC(=O)/C=C\C(=O)O)cc1`, the T/C runs as follows: under setting [1], 86 % of control; under setting [2], 105 % of control; under setting [6], 91 % of control; under setting [3], 112 % of control; under setting [4], 85 % of control; under setting [7], 106 % of control.

Turning to `COC1CC23OC2(C1)C1C=CC3N(C(=O)OCC(Cl)(Cl)Cl)N1C(=O)OCC(Cl)(Cl)Cl` (centres undefined), the T/C was 100 % of control and 94 % of control under setting [1]; 102 % of control and 89 % of control under setting [2]; 98 % of control and 110 % of control under setting [6]; 111 % of control and 93 % of control under setting [3]; 66 % of control and 77 % of control under setting [4]; 90 % of control under setting [7].

On to `NC(=O)c1csc(C2OC(CO)C(O)C2O)n1` (centres undefined), for which the T/C (endpoint: median survival time, dose: 9.38 mg/kg/injection, schedule: Q01DX009 (ip), vehicle: saline, higher = longer survival) is 103 % of control; the T/C (endpoint: median survival time, dose: 18.8 mg/kg/injection, schedule: Q01DX009 (ip), vehicle: saline, higher = longer survival) was 97 % of control; the T/C (endpoint: median survival time, dose: 37.5 mg/kg/injection, schedule: Q01DX009 (ip), vehicle: saline, higher = longer survival) was 93 % of control; the T/C (endpoint: median survival time, dose: 75.0 mg/kg/injection, schedule: Q01DX009 (ip), vehicle: saline, higher = longer survival) was 94 % of control; the T/C (endpoint: median survival time, dose: 150.0 mg/kg/injection, schedule: Q01DX009 (ip), vehicle: saline, higher = longer survival) is 97 % of control; the T/C (endpoint: median survival time, dose: 300.0 mg/kg/injection, schedule: Q01DX009 (ip), vehicle: saline, higher = longer survival) was 97 % of control. Also, the T/C is, setting by setting: (endpoint: median survival time, dose: 600.0 mg/kg/injection, schedule: Q01DX009 (ip), vehicle: saline, higher = longer survival) 101 % of control; (endpoint: median tumor weight (est.), dose: 9.38 mg/kg/injection, schedule: Q01DX009 (ip), vehicle: saline, higher = larger tumour) 95 % of control; (endpoint: median tumor weight (est.), dose: 18.8 mg/kg/injection, schedule: Q01DX009 (ip), vehicle: saline, higher = larger tumour) 95 % of control; (endpoint: median tumor weight (est.), dose: 75.0 mg/kg/injection, schedule: Q01DX009 (ip), vehicle: saline, higher = larger tumour) 100 % of control; (endpoint: median tumor weight (est.), dose: 150.0 mg/kg/injection, schedule: Q01DX009 (ip), vehicle: saline, higher = larger tumour) 104 % of control; (endpoint: median tumor weight (est.), dose: 300.0 mg/kg/injection, schedule: Q01DX009 (ip), vehicle: saline, higher = larger tumour) 91 % of control.
